Earlier results on two molecules are cited in patent publication US7795435B2, “Process for obtaining the polymorphic form I of finasteride” (Ragactives, S.L., priority 2002, dated 2010).

For this series the following is noted: 25° C., according to EP 0 599 376 B1.

The structures appear in SMILES notation.

With `CC(C)(C)NC(=O)[C@H]1CC[C@H]2[C@@H]3CC[C@H]4NC(=O)C=C[C@]4(C)[C@H]3CC[C@]12C` [Form I of finasteride], the solubility in cyclohexane was 0.27 ± 0.05 mg/g and the solubility in water was 0.05 ± 0.02 mg/g.
For `CC(C)(C)NC(=O)[C@H]1CC[C@H]2[C@@H]3CC[C@H]4NC(=O)C=C[C@]4(C)[C@H]3CC[C@]12C` [Form II of finasteride], the solubility in cyclohexane is 0.42 ± 0.05 mg/g and the solubility in water is 0.16 ± 0.02 mg/g.
